Results published in ChEMBL document CHEMBL1201862, “PubChem BioAssay data set” (2004).
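Each compound was tested at five concentrations against cells in 96-well plates for 48 hours. GI50 marks 50% less growth.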 Activity calls are given as the source filed them. Rule as the data show it: active = GI50 up to about 1.1 µM and inactive = higher.

Assays:
Test in all cases: NCI anticancer screen, dose series, 48 h
RXF 393 = tested on: RXF 393
NCI-H522 = tested on: NCI-H522
HCT-15 = tested on: HCT-15
OVCAR-3 = tested on: OVCAR-3
M19-MEL = tested on: M19-MEL
HOP-62 = tested on: HOP-62
DLD-1 = tested on: DLD-1
SF-295 = tested on: SF-295
OVCAR-8 = tested on: OVCAR-8
RPMI-8226 = tested on: RPMI-8226
Malme-3M = tested on: Malme-3M
A549 = tested on: A549
KM-20L2 = tested on: KM-20L2
M14 = tested on: M14
DMS-273 = tested on: DMS-273
T47D = tested on: T47D
MDA-N = tested on: MDA-N
MDA-MB-435 = tested on: MDA-MB-435
MDA-MB-231 = tested on: MDA-MB-231
DU-145 = tested on: DU-145

Row | SMILES | GI50 (RXF 393) | GI50 (NCI-H522) | GI50 (HCT-15) [µM] | GI50 (OVCAR-3) | GI50 (M19-MEL) | GI50 (HOP-62) | GI50 (DLD-1) | GI50 (SF-295) | GI50 (OVCAR-8) | GI50 (RPMI-8226) | GI50 (Malme-3M) | GI50 (A549) | GI50 (KM-20L2) | GI50 (M14) | GI50 (DMS-273) | GI50 (T47D) | GI50 (MDA-N) | GI50 (MDA-MB-435) | GI50 (MDA-MB-231) | GI50 (DU-145)
1 | Cc1cccc(C)c1NC(=O)CCC(=O)NNC(=O)c1cc(O)c2ccccc2c1 | 5.35 µM (inactive) | 26.3 µM (inactive) | 25.3 | 24.8 µM (inactive) | 35.2 µM (inactive) | 37.9 µM (inactive) | 34.9 µM (inactive) | 24 µM (inactive) | 20.7 µM (inactive) | 56.8 µM (inactive) | 72.1 µM (inactive) | 64.7 µM (inactive) | 34.4 µM (inactive) | 31.4 µM (inactive) | – | – | – | – | – | –
2 | CC(=O)O/C=C(/C=C/OC(C)=O)C(C/C=C(\C)C#CC=C(C)C)OC(C)=O (centres undefined) | – | 25.2 µM (inactive) | 17.7 | 24.2 µM (inactive) | 20.8 µM (inactive) | > 100 µM (inactive) | 45.8 µM (inactive) | 61.5 µM (inactive) | 37 µM (inactive) | 25.8 µM (inactive) | 72.6 µM (inactive) | > 100 µM (inactive) | 53.1 µM (inactive) | 34.1 µM (inactive) | 50.8 µM (inactive) | – | – | – | – | –
3 | Nc1nc(O)c2ncn(C3OC(CO)C(O)C3O)c2n1 (centres undefined) | 6.84 µM (inactive) | 41.9 µM (inactive) | – | 23.2 µM (inactive) | 16 µM (inactive) | 8.63 µM (inactive) | 65.3 µM (inactive) | 71.6 µM (inactive) | – | – | – | – | 16.8 µM (inactive) | – | 58.7 µM (inactive) | – | – | – | – | –
4 | O=S(OC12CC3CC(CC(C3)C1)C2)c1cc(Cl)cc(Cl)c1OCc1ccccc1 (centres undefined) | > 100 µM (inactive) | 19 µM (inactive) | – | > 100 µM (inactive) | > 100 µM (inactive) | > 100 µM (inactive) | > 100 µM (inactive) | – | – | – | > 100 µM (inactive) | – | – | > 100 µM (inactive) | – | – | – | – | – | –
5 | CCOC(=O)C(=C=C=C(c1ccccc1)c1ccccc1)C(=O)OCC | 10.7 µM (inactive) | – | 19.6 | 15.5 µM (inactive) | 18.4 µM (inactive) | 18.9 µM (inactive) | 18.5 µM (inactive) | 16.3 µM (inactive) | 21.9 µM (inactive) | 14.1 µM (inactive) | 19.8 µM (inactive) | 25 µM (inactive) | 20.9 µM (inactive) | 20.6 µM (inactive) | 20.3 µM (inactive) | – | – | – | – | –
6 | CCOC(=O)C1Nc2ccc([N+](=O)[O-])cc2[C@H]2OCC[C@@H]12 (some centres undefined) | > 100 µM (inactive) | > 100 µM (inactive) | > 100 | > 100 µM (inactive) | > 100 µM (inactive) | > 100 µM (inactive) | > 100 µM (inactive) | > 100 µM (inactive) | > 100 µM (inactive) | – | > 100 µM (inactive) | > 100 µM (inactive) | > 100 µM (inactive) | > 100 µM (inactive) | > 100 µM (inactive) | – | – | – | – | –
7 | Cc1cc2c(cc1C(=O)CCC(=O)O)CC1(C2)Cc2cc(C)c(C(=O)CCC(=O)O)cc2C1 | > 100 µM (inactive) | > 100 µM (inactive) | > 100 | > 100 µM (inactive) | – | > 100 µM (inactive) | – | > 100 µM (inactive) | > 100 µM (inactive) | > 100 µM (inactive) | > 100 µM (inactive) | > 100 µM (inactive) | – | > 100 µM (inactive) | – | > 100 µM (inactive) | > 100 µM (inactive) | > 100 µM (inactive) | > 100 µM (inactive) | > 100 µM (inactive)
8 | CC1NCCc2c1[nH]c1cc(O)ccc21 (centres undefined) | > 100 µM (inactive) | – | > 100 | > 100 µM (inactive) | > 100 µM (inactive) | > 100 µM (inactive) | > 100 µM (inactive) | > 100 µM (inactive) | > 100 µM (inactive) | > 100 µM (inactive) | > 100 µM (inactive) | > 100 µM (inactive) | > 100 µM (inactive) | > 100 µM (inactive) | – | – | – | – | – | –
9 | O=C1c2cc3c(cc2CC12Cc1cc4c(cc1C2)CCC4)CCC3 | > 100 µM (inactive) | > 100 µM (inactive) | > 100 | > 100 µM (inactive) | – | > 100 µM (inactive) | – | > 100 µM (inactive) | > 100 µM (inactive) | > 100 µM (inactive) | > 100 µM (inactive) | > 100 µM (inactive) | – | > 100 µM (inactive) | – | > 100 µM (inactive) | > 100 µM (inactive) | > 100 µM (inactive) | > 100 µM (inactive) | > 100 µM (inactive)
10 | C=CCSc1nnc2cc(CN3CCCC3)c(-c3ccc(Cl)cc3)nn12 | 15.1 µM (inactive) | 18.9 µM (inactive) | 21.3 | 17.1 µM (inactive) | – | 20.7 µM (inactive) | – | 22.2 µM (inactive) | 23.3 µM (inactive) | 39.1 µM (inactive) | 22.6 µM (inactive) | 28.1 µM (inactive) | – | 18.1 µM (inactive) | – | 20.9 µM (inactive) | 16.7 µM (inactive) | 20 µM (inactive) | 19.6 µM (inactive) | 20.3 µM (inactive)
